In patent US20100267561A1, “HERBICIDAL PYRIDAZINONE DERIVATIVES” (priority 2007, published 2010):

How the values were obtained:
Experiment in all cases: Test B pre-/postemergence plant response
Assay type in all cases: in vivo
[1] = tested on: soybean (Glycine max)
Summary of the method: (§1)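 Visual scoring from 0 (no effect) to 100 (complete control) against untreated controls was done 13 to 15 days after greenhouse treatment. Chemicals were formulated in a surfactant-containing non-phytotoxic solvent and applied to soil preemergence or to 1- to 4-leaf (2-18 cm) plants postemergence.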

[2] = tested on: downy bromegrass (Bromus tectorum); settings: for Bromegrass, Downy plant response rating: 8 g ai/ha
Summary of the method: as §1

[3] = tested on: Russian thistle (Salsola iberica); settings: Preemergence; for Russian Thistle plant response rating: scale 0 to 100
Summary of the method: as §1

[4] = tested on: surinam grass (Brachiaria decumbens)
Summary of the method: as §1

[5] = tested on: blackgrass (Alopecurus myosuroides); settings: for Blackgrass plant response rating: 8 g ai/ha
Summary of the method: as §1

[6] = tested on: catchweed bedstraw (Galium aparine); settings: Preemergence; for Galium plant response rating: scale 0 to 100
Summary of the method: as §1

[7] = tested on: morningglory (Ipomoea coccinea)
Summary of the method: as §1

[8] = tested on: corn (Zea mays)
Summary of the method: as §1

[9] = tested on: yellow nutsedge (Cyperus esculentus)
Summary of the method: as §1

[10] = tested on: lambsquarters (Chenopodium album)
Summary of the method: as §1

[11] = tested on: bermudagrass (Cynodon dactylon); settings: for Bermudagrass plant response rating: 8 g ai/ha
Summary of the method: as §1

[12] = tested on: kochia (Kochia scoparia)
Summary of the method: as §1

[13] = tested on: cocklebur (Xanthium strumarium); settings: for Cocklebur plant response rating: 8 g ai/ha
Summary of the method: as §1

[14] = tested on: wheat (Triticum aestivum)
Summary of the method: as §1

[15] = 8 g ai/ha, postemergence, 0-100 scale
[16] = Postemergence, 16 g ai/ha, scale 0 to 100
[17] = Postemergence, 31 g ai/ha, scale 0 to 100
[18] = Postemergence, 62 g ai/ha, scale 0 to 100, 0 no effect, 100 complete control
[19] = Preemergence, 31 g ai/ha, scale 0 to 100 (0 no effect, 100 complete control)
[20] = Preemergence, 62 g ai/ha, 0 to 100 scale, 0 no effect, 100 complete control
[21] = Preemergence, 8 g ai/ha, scale 0 to 100
[22] = Preemergence, 16 g ai/ha, scale 0 to 100
[23] = Preemergence, 16 g ai/ha, scale 0 to 100 (0 no effect, 100 complete control)
[24] = 31 g ai/ha, scale 0 to 100 (0 no effect, 100 complete control)
[25] = 62 g ai/ha, 0 to 100 scale, 0 no effect, 100 complete control

SMILES: Cc1cc(-c2ccc(Cl)cc2)nn1-c1c(OC(=O)OCC(C)C)cnn(C)c1=O [Compound 57]
- Soybean plant response rating [1, 15]: 0
- Plant response rating, Soybean [1, 16]: 0
- Plant response rating, Soybean [1, 17]: 0
- Plant response rating, Soybean [1, 18]: 0
- Plant response rating, Soybean [1, 19]: 0
- Plant response rating, Soybean [1, 20]: 0
- Soybean plant response rating [1, 21]: 0
- Soybean plant response rating [1, 22]: 0
- Bromegrass, Downy plant response rating ([2]; postemergence, 0-100 scale): 0
- Plant response rating, Bromegrass, Downy [2, 16]: 20
- Plant response rating, Bromegrass, Downy [2, 17]: 50
- Plant response rating, Bromegrass, Downy [2, 18]: 60
- Plant response rating, Bromegrass, Downy [2, 23]: 0
- Plant response rating, Bromegrass, Downy [2, 19]: 65
- Plant response rating, Bromegrass, Downy [2, 20]: 70
- Bromegrass, Downy plant response rating ([2]; Preemergence, scale 0 to 100): 0
- Plant response rating, Russian Thistle [3, 24]: 0
- Plant response rating, Russian Thistle [3, 25]: 0
- Russian Thistle plant response rating ([3]; 8 g ai/ha): 0
- Russian Thistle plant response rating ([3]; 16 g ai/ha): 0
- Surinam Grass plant response rating [4, 15]: 65
- Plant response rating, Surinam Grass [4, 16]: 75
- Plant response rating, Surinam Grass [4, 17]: 100
- Plant response rating, Surinam Grass [4, 18]: 100
- Plant response rating, Surinam Grass [4, 19]: 100
- Plant response rating, Surinam Grass [4, 20]: 100
- Surinam Grass plant response rating [4, 21]: 60
- Surinam Grass plant response rating [4, 22]: 98
- Blackgrass plant response rating ([5]; postemergence, 0-100 scale): 40
- Plant response rating, Blackgrass [5, 16]: 80
- Plant response rating, Blackgrass [5, 17]: 80
- Plant response rating, Blackgrass [5, 18]: 95
- Plant response rating, Blackgrass [5, 23]: 100
- Plant response rating, Blackgrass [5, 19]: 100
- Plant response rating, Blackgrass [5, 20]: 100
- Blackgrass plant response rating ([5]; Preemergence, scale 0 to 100): 40
- Plant response rating, Galium [6, 24]: 0
- Plant response rating, Galium [6, 25]: 0
- Galium plant response rating ([6]; 8 g ai/ha): 0
- Galium plant response rating ([6]; 16 g ai/ha): 0
- Morningglory plant response rating [7, 15]: 0
- Plant response rating, Morningglory [7, 16]: 0
- Plant response rating, Morningglory [7, 17]: 0
- Plant response rating, Morningglory [7, 18]: 0
- Plant response rating, Morningglory [7, 19]: 0
- Plant response rating, Morningglory [7, 20]: 0
- Morningglory plant response rating [7, 21]: 0
- Morningglory plant response rating [7, 22]: 0
- Corn plant response rating [8, 15]: 0
- Plant response rating, Corn [8, 16]: 0
- Plant response rating, Corn [8, 17]: 98
- Plant response rating, Corn [8, 18]: 100
- Plant response rating, Corn [8, 19]: 85
- Plant response rating, Corn [8, 20]: 95
- Corn plant response rating [8, 21]: 0
- Corn plant response rating [8, 22]: 60
- Nutsedge, Yellow plant response rating [9, 15]: 0
- Plant response rating, Nutsedge, Yellow [9, 16]: 0
- Plant response rating, Nutsedge, Yellow [9, 17]: 0
- Plant response rating, Nutsedge, Yellow [9, 18]: 0
- Plant response rating, Nutsedge, Yellow [9, 19]: 0
- Plant response rating, Nutsedge, Yellow [9, 20]: 0
- Nutsedge, Yellow plant response rating [9, 21]: 0
- Nutsedge, Yellow plant response rating [9, 22]: 0
- Lambsquarters plant response rating [10, 15]: 0
- Plant response rating, Lambsquarters [10, 16]: 0
- Plant response rating, Lambsquarters [10, 17]: 0
- Plant response rating, Lambsquarters [10, 18]: 0
- Plant response rating, Lambsquarters [10, 19]: 20
- Plant response rating, Lambsquarters [10, 20]: 65
- Lambsquarters plant response rating [10, 21]: 0
- Lambsquarters plant response rating [10, 22]: 0
- Bermudagrass plant response rating ([11]; postemergence, 0-100 scale): 65
- Plant response rating, Bermudagrass [11, 16]: 85
- Plant response rating, Bermudagrass [11, 17]: 98
- Plant response rating, Bermudagrass [11, 18]: 100
- Bermudagrass plant response rating ([11]; Preemergence, scale 0 to 100 (0 no effect, 100 complete control)): 100
- Plant response rating, Bermudagrass [11, 23]: 100
- Plant response rating, Bermudagrass [11, 19]: 100
- Plant response rating, Bermudagrass [11, 20]: 100
- Kochia plant response rating [12, 15]: 0
- Plant response rating, Kochia [12, 16]: 0
- Plant response rating, Kochia [12, 17]: 0
- Plant response rating, Kochia [12, 18]: 0
- Plant response rating, Kochia [12, 19]: 0
- Plant response rating, Kochia [12, 20]: 0
- Kochia plant response rating [12, 21]: 0
- Kochia plant response rating [12, 22]: 0
- Cocklebur plant response rating ([13]; postemergence, 0-100 scale): 0
- Plant response rating, Cocklebur [13, 16]: 0
- Plant response rating, Cocklebur [13, 17]: 0
- Plant response rating, Cocklebur [13, 18]: 0
- Plant response rating, Cocklebur [13, 23]: 0
- Plant response rating, Cocklebur [13, 19]: 0
- Plant response rating, Cocklebur [13, 20]: 0
- Cocklebur plant response rating ([13]; Preemergence, scale 0 to 100): 0
- Wheat plant response rating [14, 15]: 30
- Plant response rating, Wheat [14, 16]: 45
- Plant response rating, Wheat [14, 17]: 90
- Plant response rating, Wheat [14, 18]: 90
- Plant response rating, Wheat [14, 19]: 40
- Plant response rating, Wheat [14, 20]: 50
- Wheat plant response rating [14, 22]: 15
